Laboratory results from patent publication US20240130998A1, “ANALGESIA FROM ORAL PROCAINE A FORGOTTEN VOLTAGE GATED SODIUM CHANNEL BLOCKER” (priority 2023, published 2024).
Several values for one entry are separate records, joined by “and”; a condition that tells them apart may be missing. Identical values can stand only once. Like-named read-outs stand apart in the source and are kept apart here.

Key:
plasma esterase = plasma esterase (Homo sapiens, UniProt P06276); settings: cited from earlier work
Sequence of plasma esterase (P06276 29-602): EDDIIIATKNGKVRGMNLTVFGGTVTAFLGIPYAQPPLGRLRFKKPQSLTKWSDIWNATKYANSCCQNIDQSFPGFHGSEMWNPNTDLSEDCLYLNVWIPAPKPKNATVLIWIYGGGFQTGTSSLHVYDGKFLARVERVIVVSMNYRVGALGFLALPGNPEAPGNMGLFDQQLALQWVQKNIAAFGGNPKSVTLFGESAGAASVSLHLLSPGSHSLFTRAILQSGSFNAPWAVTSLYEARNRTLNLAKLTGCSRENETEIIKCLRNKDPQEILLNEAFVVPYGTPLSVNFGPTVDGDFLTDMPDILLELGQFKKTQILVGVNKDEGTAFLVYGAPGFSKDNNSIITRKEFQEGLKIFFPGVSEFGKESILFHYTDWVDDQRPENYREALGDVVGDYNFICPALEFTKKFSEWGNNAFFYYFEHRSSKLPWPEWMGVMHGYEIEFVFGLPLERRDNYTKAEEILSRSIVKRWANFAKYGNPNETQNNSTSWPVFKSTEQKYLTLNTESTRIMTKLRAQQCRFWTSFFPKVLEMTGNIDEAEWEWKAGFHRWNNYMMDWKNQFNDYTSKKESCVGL

[1] = cited from earlier work
[2] = system: central pore of sodium channels; settings: cited from earlier work
[3] = system: procaine induced convulsion; settings: diazepam 0.3 mg/kg intravenous; procaine 100-150 mg/kg intraperitoneally; animal model; cited from earlier work
[4] = Pharmacokinetics of intravenous procaine; assay type: in vivo; settings: 95 mg bolus IV, 70 kg human, calculated
Protocol: In a 70 kg human, with an average central compartment procaine blood volume of distribution of 0.57 L/kg procaine or 40.0. L, an initial blood level of 2.36 μg/ml is obtained with a 95 mg bolus IV procaine administration.[16]

[5] = Ion trapping effects of charged and uncharged procaine (pH=pKa+log B/BH+)
Text: As the molecule transits from the blood to neural cytoplasm, procaine becomes more charged and less lipophilic within the cytoplasm of the neuron, and the concentration of the active charge species increases. The charged active species is essentially trapped in the cytoplasm, only being able to exit after hydrolysis to PABA and DEAE or through distribution.
The intraneural pH of human dorsal root ganglia is not known, but it is generally accepted that intraneural pH decreases with neural activity. The pH of cervical ganglia of a rodent is reported as 7.30-6.51, and the typical resting or “steady-state” pH within a hippocampal neuron is reported as ˜7.03-7.46,[30]

[6] = system: patients with chronic pain; settings: cited from earlier work
[7] = system: patients with acute or chronic pain; settings: cited from earlier work
[8] = system: dorsal root ganglia neurons; settings: neurons with an abundance of Nav 1.8 channels; cited from earlier work
[9] = in vivo, iv; cited from earlier work
[10] = in vivo, po; cited from earlier work

For CCN(CC)CCOC(=O)c1ccc(N)cc1Cl [2-chloroprocaine], the “Rate of hydrolysis by plasma esterase relative to procaine” value (plasma esterase) is given as 4 ×.

In the case of CCN(CC)CCO [DEAE, diethylaminoethanol], the pKa [1] is listed as ~10.1.

In the case of Cc1cccc(C)c1NC(=O)CN [GX, glycinexylidide], the “Potency relative to the parent drug lidocaine” value [2] is given as “nearly ineffective”.

For CCNCC(=O)Nc1c(C)cccc1C [MEGX, monoethylglycinexylidide], the “Potency relative to the parent drug lidocaine” value [2] is given as 80%.

For Nc1ccc(C(=O)O)cc1 [PABA, para-aminobenzoic acid], the pKa [1] is given as ~4.6.

In the case of CN1C(=O)CN=C(c2ccccc2)c2cc(Cl)ccc21 [diazepam], the “Effect on procaine induced convulsion” value [3] is given as “aborted procaine induced convulsion”.

With CCN(CC)CCOC(=O)c1ccc(N)cc1 [procaine] the Initial blood level [4] was 2.36 µg/mL, the “[BH+]/[B]” value ([5]; Blood, pH 7.4) was 32 and the “[BH+]/[B]” value ([5]; CSF, pH 7.32) was 38. The “[BH+]/[B]” value ([5]; Ganglia or intraneural, pH 7.30-6.51) was 40-245, the “[BH+]/[B]” value ([5]; Interstitial, pH 7.4) was 32 and the “Predicted intraneural [BH+] relative to blood [BH+]” value ([5]; ion trapping and diminished CSF pseudocholinesterase activity, without Michaelis-Menten kinetics) was ≤ 750 times. The “Factor of increase of [BH+]/[B] from blood to intraneural cytoplasm” value ([5]; ion trapping only) was “at least 7.5”, the “Efficacy (patients successfully treated)” value ([6]; Balfour 1951, oral 80 mg with Metamucil, chronic dysphagia) was 8 and the “Efficacy (patients with relief / patients treated)” value ([6]; Beinhauer 1954, oral 3000 mg/day, herpes zoster or burning tongue syndrome) was 9/14. The “Efficacy (patients with analgesia / patients treated)” value ([6]; Klein 1953, oral 450 mg TID, chronic pain from arthritis) was 38/50, the “Efficacy (patients with analgesia / patients treated)” value ([6]; Koch 1989, oral 200 mg BID, procaine double salt complex, chronic pain from rheumatoid arthritis) was 29/30 and the “Efficacy (patients with analgesia / patients treated)” value ([6]; Kupperman 1957, oral 1000 mg TID with meals, arthritis) was “no analgesia and 0/50”. For the same molecule, the “Efficacy (patients with chronic pain relief / patients treated)” value ([6]; Traut 1952, oral 3000 mg/day in divided doses after meals, arthritis) was 5/32, the “Relief of pain and discomfort” value ([7]; Betcher, IV, 92 patients, various orthopedic conditions) was “adequate relief” and the Analgesia ([7]; Kahl, IV infusion 2000 mg over 24 hours, acute pancreatic pain) was “poor analgesia”. The Analgesia ([7]; Keats, IV, approximate dose 370 mg, 53 patients, acute post-operative pain) was “inadequate analgesia”, the “Chronic pain relief (patients)” value ([7]; Shanbrom, 500 mg to 1000 mg IV, postherpetic neuralgia) was 13/16 and the “Relief of acute pain” value ([7]; Zeluff, IV 1000 mg, 3 patients, traumatic military injuries) was “dramatic relief”. The “Minimum concentration for block of dorsal root ganglia neurons” value [8] was 10 µM, the “Blood level considered therapeutic” value [9] was 10000 ng/mL and the “Peak plasma procaine levels” value [10] was 0.2-3.1 mg percent.
